Source: US20230192686A1, “1H-PYRROLO[2,3-B]PYRIDINES AND PREPARATION AND USES THEREOF” (BioSplice Therapeutics, Inc., priority 2021, published 2023)

Target: recombinant DYRK1A kinase (Homo sapiens, UniProt Q13627)
Experiment: DYRK1A kinase assay (Ser/Thr 18 peptide Z-lyte FRET)
Type: biochemical
Conditions: DYRK1A kinase activity; 15 μM ATP, 4 μM Ser/Thr peptide 18, one hour at room temperature
Protocol: Representative compounds were screened using the assay procedure for DYRK1A kinase activity as described below.
Each compound was dissolved in DMSO as a 10 mM stock and used to prepare compound source plates. Serial dilution (1:3, 11-point dose-response curves from 10 μM to 0.00016 μM) and compound transfer was performed using the ECHO 550 (Labcyte, Sunnyvale, Calif.) into 1536-well black-walled round bottom plates (Corning).
The DYRK1A kinase assay was run using the Ser/Thr 18 peptide Z-lyte assay kit according to manufacturer's instructions (Life Technologies—a Division of Thermo-Fisher). This is a non-radioactive assay using fluorescence resonance energy transfer (FRET) between coumarin and fluorescein to detect kinase activity which is represented as a ratio of coumarin emission/fluorescein emission.
Briefly, recombinant DYRK1A kinase, ATP and Ser/Thr peptide 18 were prepared in 1× Kinase buffer to final concentrations of 0.25 μg/mL, 15 μM, and 4 μM respectively. The mixture was allowed to incubate with the representative compounds for one hour at room temperature. All reactions were performed in duplicate. Unphosphorylated (“0% Control”) and phosphorylated (“100% control”) forms of Ser/Thr 18 served as control reactions. Additionally, an 11-point dose-response curve of Staurosporine (1 uM top) was run to serve as a positive compound control.
After incubation, Development Reagent A was diluted in Development Buffer then added to the reaction and allowed to further incubate for one hour at room temperature. The plate was read at Ex 400 Em 455 to detect the coumarin signal and Ex 400 Em 520 to measure the signal (EnVision Multilabel Plate Reader, PerkinElmer).
The Emission ratio (Em) was calculated as a ratio of the coumarin (C) emission signal (at 445 nm)/Fluorescein (F) emission signal (at 520 nm). The percent phosphorylation was then calculated using the following formula: [1−((Em ratio×F100%)−C100%)/((C0%−C100%)+(Em ratio×(F100%−F0%)))]. Dose-response curves were generated, and inhibitory concentration (IC50) values were calculated using non-linear regression curve fit in the Dotmatics' Studies Software (Bishops Stortford, UK).

| Structure (SMILES) | EC50 [nM] |
| --- | --- |
| CN1CCC(NC(=O)c2cnn3ccc(-c4c[nH]c5ncccc45)cc23)CC1 [Compound 45, N-(1-Methylpiperidin-4-yl)-5-(1H-pyrrolo[2,3-b]pyridin-3-yl) pyrazolo[1,5-a]pyridine-3-carboxamide] | 1 |
| COc1ccc2c(-c3ccc4ncnn4c3)c[nH]c2n1 [Compound 1673, 6-(6-Methoxy-1H-pyrrolo[2,3-b]pyridin-3-yl)-[1,2,4]triazolo[1,5-a] pyridine] | 65 |
| Cc1ccc2c(-c3ccc4c(c3)C(C)(C)NC4=O)c[nH]c2n1 [Compound 1481, 3,3-Dimethyl-5-(6-methyl-1H-pyrrolo[2,3-b]pyridin-3-yl)isoindolin-1-one] | 57 |
| O=C(N[C@@H]1CCNC[C@H]1F)c1cnn2ccc(-c3c[nH]c4ncccc34)cc12 [Compound 43, N-((3R,4R)-3-Fluoropiperidin-4-yl)-5-(1H-pyrrolo[2,3-b]pyridin-3-yl) pyrazolo[1,5-a]pyridine-3-carboxamide] | 1 |
| CN(C)Cc1cnc2ccc(-c3c[nH]c4ncccc34)cn12 [Compound 18, 1-(6-(1H-Pyrrolo[2,3-b]pyridin-3-yl)imidazo[1,2-a]pyridin-3-yl)-N,N-dimethylmethanamine] | 17 |
| CN1CCC(Oc2ncnc3ccc(-c4c[nH]c5nc(C6CCC6)ccc45)cc23)CC1 [Compound 1577, 6-(6-Cyclobutyl-1H-pyrrolo[2,3-b]pyridin-3-yl)-4-((1-methylpiperidin-4-yl)oxy)quinazoline] | 214 |
| c1cnc2[nH]cc(-c3ccn4nccc4c3)c2c1 [Compound 36, 3-(Pyrazolo[1,5-a]pyridin-5-yl)-1H-pyrrolo[2,3-b]pyridine] | 2 |
| O=C1NCCc2sc(-c3c[nH]c4ncccc34)cc21 [Compound 11, 2-(1H-Pyrrolo[2,3-b]pyridin-3-yl)-6,7-dihydrothieno[3,2-c]pyridin-4(5H)-one] | 12 |
| CC(F)(F)CN1CCC(NC(=O)c2cnn3ccc(-c4c[nH]c5ncccc45)cc23)CC1 [Compound 49, N-(1-(2,2-Difluoropropyl)piperidin-4-yl)-5-(1H-pyrrolo[2,3-b]pyridin-3-yl)pyrazolo[1,5-a]pyridine-3-carboxamide] | 1 |
| Cc1nnc2ccc(-c3c[nH]c4ncccc34)cn12 [Compound 32, 3-Methyl-6-(1H-pyrrolo[2,3-b]pyridin-3-yl)-[1,2,4]triazolo[4,3-a] pyridine] | 151 |
| O=C(c1cnn2ccc(-c3c[nH]c4ncccc34)cc12)N1CCN(C2CC2)CC1 [Compound 56, (5-(1H-Pyrrolo[2,3-b]pyridin-3-yl)pyrazolo[1,5-a]pyridin-3-yl)(4-cyclopropylpiperazin-1-yl)methanone] | 7 |
| O=C(Nc1cccnc1)c1cnn2ccc(-c3c[nH]c4ncccc34)cc12 [Compound 52, N-(Pyridin-3-yl)-5-(1H-pyrrolo[2,3-b]pyridin-3-yl)pyrazolo[1,5-a]pyridine-3-carboxamide] | 2 |
| CC1(C)COc2ccc(-c3c[nH]c4ncccc34)cc21 [Compound 72, 3-(3,3-Dimethyl-2,3-dihydrobenzofuran-5-yl)-1H-pyrrolo[2,3-b] pyridine] | 91 |
| O=C1CC2(CCNCC2)Oc2cc(-c3c[nH]c4ncc(-c5cccnc5)cc34)ccc21 [Compound 1192, 7-(5-(Pyridin-3-yl)-1H-pyrrolo[2,3-b]pyridin-3-yl)spiro[chromane-2,4′-piperidin]-4-one] | 10 |
| O=C(NCC(F)F)c1cnn2ccc(-c3c[nH]c4nc(C5CCC5)ccc34)cc12 [Compound 1554, 5-(6-Cyclobutyl-1H-pyrrolo[2,3-b]pyridin-3-yl)-N-(2,2-difluoroethyl) pyrazolo[1,5-a]pyridine-3-carboxamide] | 8 |
| Cc1ccccc1-c1cnc2[nH]cc(-c3cc(F)c4nc(C)n(C(C)C)c4c3)c2c1 [Compound 955, 4-Fluoro-1-isopropyl-2-methyl-6-(5-(o-tolyl)-1H-pyrrolo[2,3-b]pyridin-3-yl)-1H-benzo[d]imidazole] | 20 |
| Cc1nc2c(F)cc(-c3c[nH]c4ncc(-c5ccnc(N6CCN(C)CC6)c5)cc34)cc2n1C(C)C [Compound 1375, 4-Fluoro-1-isopropyl-2-methyl-6-(5-(2-(4-methylpiperazin-1-yl)pyridin-4-yl)-1H-pyrrolo[2,3-b]pyridin-3-yl)-1H-benzo[d]imidazole] | 2 |

| Structure (SMILES) | EC50 [nM] |
| --- | --- |
| CN1CCC(NC(=O)c2ccnc3ccc(-c4c[nH]c5ncccc45)cc23)CC1 [Compound 89, N-(1-Methylpiperidin-4-yl)-6-(1H-pyrrolo[2,3-b]pyridin-3-yl) quinoline-4-carboxamide] | 1 |
| CN1CCN(c2cc(-c3cnc4[nH]cc(-c5ccc6ncccc6c5)c4c3)ccn2)CC1 [Compound 1404, 6-(5-(2-(4-Methylpiperazin-1-yl)pyridin-4-yl)-1H-pyrrolo[2,3-b]pyridin-3-yl)quinoline] | 1 |
| c1cnc2[nH]cc(-c3ccnc4[nH]ccc34)c2c1 [Compound 2, 1H,1′H-3,4′-Bipyrrolo[2,3-b]pyridine] | 50 |
| CN1CCN(C(=O)c2cnc3[nH]cc(-c4ccc5c(c4)OCCNC5=O)c3c2)CC1 [Compound 521, 8-(5-(4-Methylpiperazine-1-carbonyl)-1H-pyrrolo[2,3-b]pyridin-3-yl)-3,4-dihydrobenzo[f][1,4]oxazepin-5(2H)-one] | 9 |
| O=C(Nc1ccc2c(-c3ccc4ncccc4c3)c[nH]c2n1)c1ccncc1 [Compound 1908, N-(3-(Quinolin-6-yl)-1H-pyrrolo[2,3-b]pyridin-6-yl)isonicotinamide] | 1 |
| O=C(NC1CCN(C2CC2)CC1)c1cnn2ccc(-c3c[nH]c4ncccc34)cc12 [Compound 47, N-(1-Cyclopropylpiperidin-4-yl)-5-(1H-pyrrolo[2,3-b]pyridin-3-yl) pyrazolo[1,5-a]pyridine-3-carboxamide] | 2 |
| O=C(NC1CCN(CC2CC2)CC1)c1cnn2ccc(-c3c[nH]c4ncccc34)cc12 [Compound 48, N-(1-(cyclopropylmethyl)piperidin-4-yl)-5-(1H-pyrrolo[2,3-b]pyridin-3-yl)pyrazolo[1,5-a]pyridine-3-carboxamide] | 1 |
| COc1ccc2c(-c3ccc4ncccc4c3)c[nH]c2n1 [Compound 1698, 6-(6-Methoxy-1H-pyrrolo[2,3-b]pyridin-3-yl)quinoline] | 7 |
| CN1CC2CN(C(=O)c3cnn4ccc(-c5c[nH]c6ncccc56)cc34)CC2C1 (stereo not shown) [Compound 64, (5-(1H-Pyrrolo[2,3-b]pyridin-3-yl)pyrazolo[1,5-a]pyridin-3-yl)(5-methylhexahydropyrrolo[3,4-c]pyrrol-2(1H)-yl)methanone] | 6 |
| Cn1cc2cc(-c3c[nH]c4ncccc34)ccc2n1 [Compound 3, 2-Methyl-5-(1H-pyrrolo[2,3-b]pyridin-3-yl)-2H-indazole] | 6 |
| CN1CCC2(CC1)CC(=O)c1ccc(-c3c[nH]c4nc(NC(=O)c5ccncc5)ccc34)cc12 [Compound 1899, N-(3-(1′-methyl-3-oxo-2,3-dihydrospiro[indene-1,4′-piperidin]-6-yl)-1H-pyrrolo[2,3-b]pyridin-6-yl)isonicotinamide] | 14 |
| c1cnc2[nH]cc(-c3cc4ccncc4s3)c2c1 [Compound 5, 2-(1H-Pyrrolo[2,3-b]pyridin-3-yl)thieno[2,3-c]pyridine] | 10 |
| CN1C2CCC1CN(C(=O)c1cnc3[nH]cc(-c4cc5ccncc5s4)c3c1)C2 [Compound 2041, (8-Methyl-3,8-diazabicyclo[3.2.1]octan-3-yl)(3-(thieno[2,3-c]pyridin-2-yl)-1H-pyrrolo[2,3-b]pyridin-5-yl)methanone] | 115 |
| Cc1ncccc1-c1cnc2[nH]cc(-c3cc(F)c4nc(C)n(C(C)C)c4c3)c2c1 [Compound 1207, 4-Fluoro-1-isopropyl-2-methyl-6-(5-(2-methylpyridin-3-yl)-1H-pyrrolo[2,3-b]pyridin-3-yl)-1H-benzo[d]imidazole] | 2 |
| CN1CCN(Cc2cnc3[nH]cc(-c4ccc5c(c4)C(C)(C)CNC5=O)c3c2)CC1 [Compound 435, 4,4-dimethyl-6-(5-((4-methylpiperazin-1-yl)methyl)-1H-pyrrolo[2,3-b]pyridin-3-yl)-3,4-dihydroisoquinolin-1(2H)-one] | 96 |
| Cc1nc2c(F)cc(-c3c[nH]c4ncc(C(=O)O)cc34)cc2n1C(C)C [Compound 2043, 3-(4-Fluoro-1-isopropyl-2-methyl-1H-benzo[d]imidazol-6-yl)-1H-pyrrolo[2,3-b]pyridine-5-carboxylic acid] | 36 |
| Cn1nnc2ccc(-c3c[nH]c4ncccc34)cc21 [Compound 31, 1-Methyl-6-(1H-pyrrolo[2,3-b]pyridin-3-yl)-1H-benzo[d][1,2,3]triazole] | 4 |
